Laboratory results: US8859463B2, “Method for controlling noxious organisms” (Sumitomo Chemical Company, Limited, priority 2009, dated 2014)

Tests used:
Format in all cases: in vivo
Digitaria ciliaris = assay: Herbicidal activity, soybean pot test, Example 75; settings: metalaxyl compound none, flumioxazin 50 g/ha, twelve days after sowing
Description: (§1) In a glass container measuring 60 mm in inner diameter and 20 mm in height, 12 mg of a metalaxyl emulsifiable concentrate (emulsifiable concentrate containing 25% metalaxyl, manufactured by Syngenta under the trade name of Subdue) and 20 soybean seeds were placed. After capping this glass container, the metalaxyl emulsifiable concentrate was adhered to the soybean seeds by shaking the glass container by hand. In the same manner, 47 mg of the metalaxyl emulsifiable concentrate was adhered to the soybean seeds. In the same manner, 9 mg of a metalaxyl-M emulsifiable concentrate (emulsifiable concentrate containing 33.3% metalaxyl-M manufactured by Syngeta under the trade name of Apron XL) was adhered to the soybean seeds. In the same manner, 40 mg of the metalaxyl-M emulsifiable concentrate was adhered to the soybean seeds.
(§2) A plastic pot measuring 194 mm in inner diameter and 176 mm in height was filled with the soil. In this pot, 2 soybean seeds were sown per 1 pot, 7 seeds of Ipomoea hederacea were sown per 1 pot, and 10 seeds of Digitaria ciliaris were sown per 1 pot. […]

Ipomoea hederacea [1] = assay: Herbicidal activity, soybean pot test, Example 75; settings: metalaxyl compound none, flumioxazin 50 g/ha, twelve days after sowing
Description: as §1, §2

soybean = assay: Phytotoxicity to soybean, Example 6; settings: clothianidin none; flumioxazin 25 g/ha; day 11 after sowing
From the text: A soil was packed in a 1/5000a Wagner pot. The above soybean seeds were sown in the Wagner pot at a rate of two seeds per pot, and the seeds of Ipomoea hederacea were sown in the pot at a rate of three seeds per pot.
On day 11 after sowing of the seeds of soybean and Ipomoea hederacea, the herbicidal effect and phytotoxicity were examined.

Ipomoea hederacea [2] = assay: Herbicidal activity, corn pot test, Example 16; settings: azole seed treatment none, flumioxazin 50 g/ha, twelve days after sowing
Description: In a glass container measuring 60 mm in inner diameter and 20 mm in height, 8 μl of a prothioconazole emulsifiable concentrate (emulsifiable concentrate containing 25% prothioconazole, manufactured by Bayer Crop Science Inc. under the trade name of Proline) and 20 corn seeds were placed. The prothioconazole emulsifiable concentrate was adhered to the corn seeds by shaking this plastic cup by hand. In the same manner, 8 μl of a difenoconazole emulsifiable concentrate (emulsifiable concentrate containing 25% difenoconazole, manufactured by Syngenta under the trade name of Score) was adhered to 20 corn seeds. In the same manner, 50 mg of a tebuconazole suspension (suspension containing 20% tebuconazole, manufactured by Hokko Chemical Industry under the trade name of ONLY ONE Flowable) was adhered to 20 corn seeds.
A plastic pot measuring 194 mm in inner diameter and 176 mm in height was filled with the soil. In this pot, 3 corn seeds were sown per 1 pot and 10 seeds of Ipomoea hederacea were sown per 1 pot. […]

Spodoptera litura = assay: Insecticidal effect (protective value), corn pot test, Example 4; settings: clothianidin none, day 3 after release
Description: The evaluation of the insecticidal effect was performed by determining the life and death of the insects at the time of the investigation and calculating the protective value according to the following equation; Protective Value (%)=100×(1−T/C) wherein the symbols have the following meanings;
C: The number of insects at the time of observation in an untreated section: and
T: The number of insects at the time of observation in a treated section.
In addition, the clothianidin suspension was attached to the corn seeds in a similar manner except that it was used in an amount of 217.5 μL.
Thereafter, the test pot was placed in a greenhouse. On day 22 after corn sowing, 10 fourth-instar larvae of Spodoptera litura were released in the pot and the whole pot was then covered with a nylon cloth.
On day 3 after release of Spodoptera litura, the insecticidal effect was examined.

C#CCN1C(=O)COc2cc(F)c(N3C(=O)C4=C(CCCC4)C3=O)cc21 [Flumioxazin, flumioxazin]
Herbicidal activity Digitaria ciliaris (Digitaria ciliaris): 75
Herbicidal activity Ipomoea hederacea (Ipomoea hederacea [1]): 55
Phytotoxicity to Soybean (soybean): No harm
Herbicidal activity on Ipomoea hederacea (Ipomoea hederacea [2]): 88
Protective Value (Spodoptera litura; flumioxazin 12.5 g/ha): 0%
Protective Value (Spodoptera litura; flumioxazin 50 g/ha): 5%
